Experimental data published in ChEMBL document CHEMBL3526110, “Preclinical evaluation of the metabolism and disposition of RRx-001, a novel investigative anticancer agent” (Drug Metab Dispos, 2012).

What was measured:
[1] = Ratio of drug level in rat blood to rat plasma at 1 uM after 30 mins; format: ADME, cell-free; details: whole blood
[2] = Ratio of drug level in dog blood to dog plasma at 1 uM after 30 mins; format: ADME, Canis lupus familiaris; details: whole blood
[3] = Ratio of drug level in monkey blood to monkey plasma at 1 uM after 30 mins; format: ADME, Macaca mulatta; details: rhesus monkey, whole blood
[4] = Ratio of drug level in human blood to human plasma at 1 uM after 30 mins; format: ADME; details: whole blood
[5] = Ratio of drug level in rat blood to rat plasma at 20 uM after 30 mins; format: ADME, cell-free; details: whole blood
[6] = Ratio of drug level in monkey blood to monkey plasma at 20 uM after 30 mins; format: ADME, Macaca mulatta; details: rhesus monkey, whole blood
[7] = Ratio of drug level in human blood to human plasma at 20 uM after 30 mins; format: ADME; details: whole blood
[8] = Binding affinity to rat hemoglobin assessed as protein bound compound level at 1 uM; format: ADME; details: read-out: PB (converted)
[9] = Binding affinity to dog hemoglobin assessed as protein bound compound level at 1 uM; format: ADME, Canis lupus familiaris; details: read-out: PB (converted)
[10] = Binding affinity to monkey hemoglobin assessed as protein bound compound level at 1 uM; format: ADME, Macaca mulatta; details: rhesus monkey, read-out: PB (converted)
[11] = Binding affinity to human hemoglobin assessed as protein bound compound level at 1 uM; format: ADME; details: read-out: PB (converted)
[12] = Binding affinity to rat hemoglobin assessed as protein bound compound level at 20 uM; format: ADME; details: read-out: PB (converted)
[13] = Ratio of drug level in dog blood to dog plasma at 20 uM after 30 mins; format: ADME, Canis lupus familiaris; details: whole blood
[14] = Half life in Wistar Hanover rat blood at 10 mg/kg, iv administered as single dose; format: ADME, organism-based; set-up: dose 10 mg/kg, route intravenous; details: whole blood
Blood [15] = test: AUC (0 to t) in Wistar Hanover rat blood at 10 mg/kg, iv administered as single dose; format: ADME, organism-based; set-up: dose 10 mg/kg, route intravenous; details: in vivo
[16] = Half life in Wistar Hanover rat plasma at 10 mg/kg, iv administered as single dose; format: ADME, organism-based; set-up: dose 10 mg/kg, route intravenous
[17] = Volume of distribution in Wistar Hanover rat blood at 10 mg/kg, iv administered as single dose; format: ADME, organism-based; set-up: dose 10 mg/kg, route intravenous; details: whole blood
Plasma [18] = test: AUC (0 to t) in Wistar Hanover rat plasma at 10 mg/kg, iv administered as single dose; format: ADME, organism-based; set-up: dose 10 mg/kg, route intravenous; details: in vivo
Plasma [19] = test: AUC (0 to infinity) in Wistar Hanover rat plasma at 10 mg/kg, iv administered as single dose; format: ADME, organism-based; set-up: time infinity, dose 10 mg/kg, route intravenous; details: in vivo
[20] = Volume of distribution in Wistar Hanover rat plasma at 10 mg/kg, iv administered as single dose; format: ADME, organism-based; set-up: dose 10 mg/kg, route intravenous
[21] = Drug excretion in Wistar Hanover rat feces at 10 mg/kg, iv administered as single dose measured on day 2; format: ADME, organism-based; set-up: dose 10 mg/kg, route intravenous; details: faeces, read-out: Drug excretion
[22] = Drug excretion in Wistar Hanover rat feces at 10 mg/kg, iv administered as single dose measured on day 1; format: ADME, organism-based; set-up: dose 10 mg/kg, route intravenous; details: faeces, read-out: Drug excretion
[23] = Drug excretion in Wistar Hanover rat urine at 10 mg/kg, iv administered as single dose after 168 hrs; format: ADME, organism-based; set-up: dose 10 mg/kg, route intravenous; details: read-out: Drug excretion
[24] = Drug excretion in Wistar Hanover rat urine at 10 mg/kg, iv administered as single dose after 0 to 8 hrs; format: ADME, organism-based; set-up: dose 10 mg/kg, route intravenous; details: read-out: Drug excretion
Nucleic Acid = test: Ratio of drug level in blood to plasma in Wistar Hanover rat at 10 mg/kg, iv administered as single dose after 168 hrs; format: ADME, organism-based; set-up: dose 10 mg/kg, route intravenous; details: in vivo
[25] = Ratio of drug level in blood to plasma in Wistar Hanover rat at 10 mg/kg, iv administered as single dose after 0.083 hrs; format: ADME, organism-based; set-up: dose 10 mg/kg, route intravenous; details: whole blood and plasma
[26] = Drug excretion in Wistar Hanover rat feces at 10 mg/kg, iv administered as single dose measured on day 7; format: ADME, organism-based; set-up: dose 10 mg/kg, route intravenous; details: faeces, read-out: Drug excretion
Blood [27] = test: Drug level in Wistar Hanover rat blood at 10 mg/kg, iv administered as single dose after 168 hrs relative to total radioactivity; format: ADME, organism-based; set-up: dose 10 mg/kg, route intravenous; details: in vivo
[28] = Drug level in Wistar Hanover rat bile at 10 mg/kg, iv administered as single dose after 24 hrs; format: ADME, organism-based; set-up: dose 10 mg/kg, route intravenous; details: in vivo
Stomach = test: Drug level in Wistar Hanover rat stomach at 10 mg/kg, iv administered as single dose after 24 hrs; format: ADME, organism-based; set-up: dose 10 mg/kg, route intravenous; details: in vivo
Blood [29] = test: Drug level in Wistar Hanover rat blood at 10 mg/kg, iv administered as single dose after 24 hrs; format: ADME, organism-based; set-up: dose 10 mg/kg, route intravenous; details: in vivo
Blood [30] = test: Drug level in Wistar Hanover rat blood at 10 mg/kg, iv administered as single dose after 168 hrs; format: ADME, organism-based; set-up: dose 10 mg/kg, route intravenous; details: in vivo
[31] = Stability in water; format: physicochemical; details: buffer
[32] = Stability in pH 7.0 buffer; format: physicochemical
[33] = Binding affinity to monkey hemoglobin assessed as protein bound compound level at 20 uM; format: ADME, Macaca mulatta; details: rhesus monkey, read-out: PB (converted)
[34] = Binding affinity to human hemoglobin assessed as protein bound compound level at 20 uM; format: ADME; details: read-out: PB (converted)
Blood [35] = test: Retention time in rat whole blood at 20 uM by LC-MS/MS method; format: ADME, tissue-based
Blood [36] = test: Retention time in human whole blood at 20 uM by LC-MS/MS method; format: ADME, tissue-based
Blood [37] = test: Retention time in human whole blood in presence of 0.1% formic acid in water at 20 uM by LC-MS/MS method; format: ADME, tissue-based
Blood [38] = test: Retention time in rat whole blood in presence of 0.1% formic acid in water at 20 uM by LC-MS/MS method; format: ADME, tissue-based
Blood [39] = test: Retention time in human whole blood in presence of 0.1% formic acid in acetonitrile at 20 uM by LC-MS/MS method; format: ADME, tissue-based
Blood [40] = test: Retention time in rat whole blood in presence of 0.1% formic acid in acetonitrile at 20 uM by LC-MS/MS method; format: ADME, tissue-based
Blood [41] = test: Drug metabolism in human whole blood assessed as [(S)-2-amino-5-(((R)-1-((carboxymethyl)amino)-3-((2-(3,3-dinitroazetidin-1-yl)-2-oxoethyl)thio)-1-oxopropan-2-yl)amino)-5-oxopentanoic acid] formation at 20 uM by LC-MS/MS method; format: ADME, tissue-based
Blood [42] = test: Drug metabolism in rat whole blood assessed as [(S)-2-amino-5-(((R)-1-((carboxymethyl)amino)-3-((2-(3,3-dinitroazetidin-1-yl)-2-oxoethyl)thio)-1-oxopropan-2-yl)amino)-5-oxopentanoic acid] formation at 20 uM by LC-MS/MS method; format: ADME, tissue-based
Blood [43] = test: Drug metabolism in human whole blood assessed as (R)-2-amino-3-((2-(3,3-dinitroazetidin-1-yl)-2-oxoethyl)thio)propanoic acid] formation at 20 uM by LC-MS/MS method; format: ADME, tissue-based
Blood [44] = test: Drug metabolism in rat whole blood assessed as (R)-2-amino-3-((2-(3,3-dinitroazetidin-1-yl)-2-oxoethyl)thio)propanoic acid] formation at 20 uM by LC-MS/MS method; format: ADME, tissue-based
Blood [45] = test: Drug metabolism in human whole blood assessed as [(S)-2-amino-5-(((R)-1-((carboxymethyl)amino)-3-((2-(3-nitroazetidin-1-yl)-2-oxoethyl)thio)-1-oxopropan-2-yl)amino)-5-oxopentanoic acid] formation at 20 uM by LC-MS/MS method; format: ADME, tissue-based
Blood [46] = test: Drug metabolism in rat whole blood assessed as [(S)-2-amino-5-(((R)-1-((carboxymethyl)amino)-3-((2-(3-nitroazetidin-1-yl)-2-oxoethyl)thio)-1-oxopropan-2-yl)amino)-5-oxopentanoic acid] formation at 20 uM by LC-MS/MS method; format: ADME, tissue-based
Blood [47] = test: Drug metabolism in human whole blood assessed as [(R)-2-amino-3-((2-(3-nitroazetidin-1-yl)-2-oxoethyl)thio)propanoic acid] formation at 20 uM by LC-MS/MS method; format: ADME, tissue-based
Blood [48] = test: Drug metabolism in rat whole blood assessed as [(R)-2-amino-3-((2-(3-nitroazetidin-1-yl)-2-oxoethyl)thio)propanoic acid] formation at 20 uM by LC-MS/MS method; format: ADME, tissue-based
Blood [49] = test: Drug metabolism in human whole blood assessed as [(R)-2-(2-amino-3-((2-(3,3-dinitroazetidin-1-yl)-2-oxoethyl)thio)propanamido)acetic acid] formation at 20 uM by LC-MS/MS method; format: ADME, tissue-based
Blood [50] = test: Drug metabolism in rat whole blood assessed as [(R)-2-(2-amino-3-((2-(3,3-dinitroazetidin-1-yl)-2-oxoethyl)thio)propanamido)acetic acid] formation at 20 uM by LC-MS/MS method; format: ADME, tissue-based
Blood [51] = test: Drug metabolism in human whole blood assessed as [(S)-2-amino-5-(((R)-1-((carboxymethyl)amino)-1-oxo-3-((2-oxo-2-(3-oxoazetidin-1-yl)ethyl)thio)propan-2-yl)amino)-5-oxopentanoic acid] formation at 20 uM by LC-MS/MS method; format: ADME, tissue-based
Blood [52] = test: Drug metabolism in rat whole blood assessed as [(S)-2-amino-5-(((R)-1-((carboxymethyl)amino)-1-oxo-3-((2-oxo-2-(3-oxoazetidin-1-yl)ethyl)thio)propan-2-yl)amino)-5-oxopentanoic acid] formation at 20 uM by LC-MS/MS method; format: ADME, tissue-based
Blood [53] = test: Drug metabolism in human whole blood assessed as [(S)-2-amino-5-(((R)-1-((carboxymethyl)amino)-3-((2-(3-(hydroxyimino)azetidin-1-yl)-2-oxoethyl)thio)-1-oxopropan-2-yl)amino)-5-oxopentanoic acid] formation at 20 uM by LC-MS/MS method; format: ADME, tissue-based
Blood [54] = test: Drug metabolism in rat whole blood assessed as [(S)-2-amino-5-(((R)-1-((carboxymethyl)amino)-3-((2-(3-(hydroxyimino)azetidin-1-yl)-2-oxoethyl)thio)-1-oxopropan-2-yl)amino)-5-oxopentanoic acid] formation at 20 uM by LC-MS/MS method; format: ADME, tissue-based

## O=C(CBr)N1CC([N+](=O)[O-])([N+](=O)[O-])C1 [NIBROZETONE]
[1]
  blood plasma ratio at 0.5 h, 1 µM: 2.1
[2]
  blood plasma ratio at 0.5 h, 1 µM: 0.83
[3]
  blood plasma ratio at 0.5 h, 1 µM: 0.82
[4]
  blood plasma ratio at 0.5 h, 1 µM: 1
[5]
  blood plasma ratio at 0.5 h, 20 µM: 4
[6]
  blood plasma ratio at 0.5 h, 20 µM: 1.5
[7]
  blood plasma ratio at 0.5 h, 20 µM: 0.99
[8]
  fraction unbound at 1 µM: 0.31
[9]
  fraction unbound at 1 µM: 0.77
[10]
  fraction unbound at 1 µM: 0.902
[11]
  fraction unbound at 1 µM: 0.71
[12]
  fraction unbound at 20 µM: 0.21
[13]
  blood plasma ratio at 0.5 h, 20 µM: 1.2
[14]
  half-life: > 168 h
Blood [15]
  AUCt: 14900000 ngequiv.hr/g
[16]
  half-life: 66.1 h
[17]
  Vd: 0.084 L/kg
Plasma [18]
  AUCt: 160000 ngequiv.hr/g
Plasma [19]
  AUC: 200000 ngequiv.hr/g
[20]
  Vd: 0.926 L/kg
[21]
  dose excreted: 0.3%
[22]
  dose excreted: 1.5%
[23]
  dose excreted at 168 h: 36.3%
[24]
  dose excreted: 26%
Nucleic Acid
  Ratio: 222
[25]
  blood plasma ratio at 0.083 h: 12.4
[26]
  dose excreted: 0.06%
Blood [27]
  Drug uptake: 61.8%
[28]
  Drug uptake: Not Active
Stomach
  Drug uptake: Not Active
Blood [29]
  Drug uptake: 76500 ngequiv/g
Blood [30]
  Drug uptake: 69600 ngequiv/g
[31]
  Stability: Stable
[32]
  Stability: Stable
[33]
  fraction unbound at 20 µM: 0.8
[34]
  fraction unbound at 20 µM: 0.78
Blood [35]
  Retention_time: 15.4 min
Blood [36]
  Retention_time: 15.4 min
Blood [37]
  Retention_time: 12.8 min
Blood [38]
  Retention_time: 12.8 min
Blood [39]
  Retention_time: 15.1 min
Blood [40]
  Retention_time: 15.1 min
Blood [41]
  Drug metabolism: metabolite_detected
Blood [42]
  Drug metabolism: metabolite_detected
Blood [43]
  Drug metabolism: metabolite_detected
Blood [44]
  Drug metabolism: metabolite_detected
Blood [45]
  Drug metabolism: metabolite_detected
Blood [46]
  Drug metabolism: metabolite_detected
Blood [47]
  Drug metabolism: metabolite_detected
Blood [48]
  Drug metabolism: metabolite_detected
Blood [49]
  Drug metabolism: metabolite_detected
Blood [50]
  Drug metabolism: metabolite_detected
Blood [51]
  Drug metabolism: metabolite_detected
Blood [52]
  Drug metabolism: metabolite_detected
Blood [53]
  Drug metabolism: metabolite_detected
Blood [54]
  Drug metabolism: metabolite_detected
